In US4840947A, “Antiinflammatory and analgesic piperidin-4-yl-tetracyclic benzodiazepines and use thereas” (Hoechst-Roussel Pharmaceuticals, Inc., priority 1986, dated 1989):
Like-named read-outs stand apart in the source and are kept apart here.

Legend:
[1] = test system: 2-phenyl-1,4-benzoquinone induced writhing in mice; experiment: Phenylquinone Induced Writhing in Mice (2-phenyl-1,4-benzoquinone, analgesia); assay type: in vivo, mouse; conditions: for Percent Inhibition of phenylquinone induced writhing: at 20 mg/kg; for ED50: Mus musculus, sc, read-out: ED50, inhibition of phenylquinone induced writhing
[2] = test system: carrageenan-induced rat paw edema; experiment: Inhibition of Carrageenan-Induced Rat Paw Edema; assay type: in vivo; conditions: for ED50: po; for Percent Inhibition of carrageenan-induced rat paw edema: at 100 mg/kg, p.o.
[3] = test system: adjuvant-induced polyarthritis in rats; experiment: Adjuvant-Induced Polyarthritis In Rats; assay type: in vivo, rat (male Charles River-Wistar Lewis); conditions: rat, p.o.; for ED50: po; for percent inhibition of paw volume, adjuvant-treated paw / percent inhibition of paw volume, non-injected paw: at 50 mg/kg
Protocol: This activity was measured by a procedure similar to that described by C.
Groups of 10 male Charles River-Wistar Lewis rats weighing 150 to 175 g were individually housed and maintained on a regular rat chow diet. Water was given ad libitum. The adjuvant was prepared by suspending 75 mg of Mycobacterium butyricum (Difco Laboratories, Detroit, Mich.) in 10 ml of white paraffin oil with continuous stirring for 2 hours at room temperature prior to administration. Test compounds are prepared by suspending the drug in water, adding one drop of Tween 80 per 10 ml of suspension, and homogenizing. The adjuvant suspension (0.1 ml) was injected into the footpad of the left hind paw of the rat. Test compound suspensions were administered orally (10 ml/kg) the day before adjuvant suspension injection and the administration was continued for 21 days. One group of ten rats was used for the test drug. Standard, adjuvant-injected control and non-injected control groups are run along with the test drug. Control animals received vehicle (10 ml/kg). Three doses of test drug and one dose of standard preparation were used. Injected and non-injected paw volumes were determined on the day the adjuvant suspension was given, and on subsequent days thereafter (usually days 5, 10, 18, and 21) by the method of C. A. Winter, et al., Proc. Soc.
The percent inhibition of paw volume (injected and non-injected hind paw) was calculated by the following formula: [formula]

[4] = adjuvant-treated (injected) paw, read-out: ED50 (50% inhibition of paw volume), adjuvant-treated paw
[5] = non-injected paw, read-out: ED50 (50% inhibition of paw volume), non-injected paw
[6] = adjuvant-treated (injected) paw

Row | Structure (SMILES) | Percent Inhibition of phenylquinone induced writhing ([1]; mice, s.c.) | ED50 [3, 4] | ED50 [3, 5] | Percent Inhibition of carrageenan-induced rat paw edema [2] | other results
1 | CCO.CN1CCC(C2Nc3ccccc3N3CCc4cc(Br)cc2c43)CC1 (stereo not shown) [4-Bromo-6-(1-methylpiperidin-4-yl)-1,2,6,7-tetrahydrobenzo[b]pyrrolo[3,2,1-jk][1,4]benzodiazepine ethanolate] | 47% | – | – | – | –
2 | CCO.CN1CCC(C2Nc3ccccc3N3CCc4cccc2c43)CC1.O=C(O)/C=C/C(=O)O (stereo not shown) [6-(1-Methylpiperidin-4-yl)-1,2,6,7-tetrahydrobenzo[b]pyrrolo[3,2,1-jk][1,4]benzodiazepine fumarate ethanolate] | 51% | 73.6 mg/kg | 18.5 mg/kg | – | ED50 [2]: 41.5 mg/kg
3 | CN1CCC(C2c3cccc4c3N(CC4)c3ccccc3N2C(=O)OCC(Cl)(Cl)Cl)CC1 (stereo not shown) [6-(1-Methylpiperidin-4-yl)-1,2,6,7-tetrahydrobenzo[b]pyrrolo[3,2,1-jk][1,4]benzodiazepine-7-carboxylic acid, 2,2,2-trichloroethyl ester] | – | – | – | 44% | –
4 | CN1CCC(C2Nc3ccccc3N3CCCc4cccc2c43)CC1 (stereo not shown) [7-(1-Methyl-4-piperidinyl)-2,3,7,8-tetrahydro-1H-quino[1,8-ab][1,5]benzodiazepine hemifumarate hemihydrate] | 27% | – | – | 21% | percent inhibition of paw volume, adjuvant-treated paw [3, 6]: 39%; percent inhibition of paw volume, non-injected paw ([3]; non-injected paw): 79%
5 | CN1CCC(C2c3cccc4c3N(CC4)c3ccccc3N2C=O)CC1.O=CO (stereo not shown) [7-Formyl-6-(1-methylpiperidin-4-yl)-1,2,6,7-tetrahydrobenzo[b]pyrrolo[3,2,1-jk][1,4]benzodiazepine formate] | – | – | – | – | ED50 ([1]; mice, s.c.): 0.9 mg/kg
6 | CN1CCC(C2c3cccc4c3N(CC4)c3ccccc3N2C)CC1 (stereo not shown) [7-Methyl-6-(1-methylpiperidin-4-yl)-1,2,6,7-tetrahydrobenzo[b]pyrrolo[3,2,1-jk][1,4]benzodiazepine] | – | – | – | – | ED50 ([1]; mice, s.c.): 2.6 mg/kg
7 | CN1CCC(C2Nc3cc(Br)ccc3N3CCc4cccc2c43)CC1 (stereo not shown) [9-Bromo-6-(1-methylpiperidin-4-yl)-1,2,6,7-tetrahydrobenzo[b]pyrrolo[3,2,1-jk][1,4]benzodiazepine] | – | 112 mg/kg | 3.6 mg/kg | 40% | –
8 | CN1CCC(C2Nc3cc(F)ccc3N3CCc4cccc2c43)CC1 (stereo not shown) [9-Fluoro-6-(1-methylpiperidin-4-yl)-1,2,6,7-tetrahydrobenzo[b]pyrrolo[3,2,1-jk][1,4]benzodiazepine] | 35% | – | – | – | percent inhibition of paw volume, adjuvant-treated paw [3, 6]: 48%; percent inhibition of paw volume, non-injected paw ([3]; non-injected paw): 116%
9 | CCCCC1C(=O)N(c2ccccc2)N(c2ccccc2)C1=O [Phenylbutazone, reference compound] | – | 14 mg/kg | 9.4 mg/kg | – | ED50 [2]: 50 mg/kg
10 | CCC(=O)O[C@](Cc1ccccc1)(c1ccccc1)[C@H](C)CN(C)C [Propoxyphene, reference compound] | – | – | – | – | ED50 [1]: 3.9 mg/kg
